The text below walks through data of the Kinase Knowledgebase extract (Sharma et al. 2016).

Each structure is given as a SMILES string. In brackets after ≈: the same amount, converted by molar mass. Several values for one entry are separate records, joined by “and”; a condition that tells them apart may be missing. Equal entries are not always repeated.

Test [1] has as its target EGFR (human) (UniProt P00533). The settings on record: skbr3.
In test [2] the target is EGFR (human) (UniProt P00533). The settings on record: 3t3.
In test [3] the target is EGFR (human) (UniProt P00533). To be noted: her2/3t3.
The target of test [4] is EGFR (human) (UniProt P00533). To be noted: mda435.
The target of test [5] is EGFR (human) (UniProt P00533). To be noted: a431.
Test [6] has as its target EGFR (human) (UniProt P00533). The settings on record: sw 620.
For test [7], the target named is EGFR (human) (UniProt P00533). The settings on record: a2780s.
Test [8] concerns the target EGFR (human) (UniProt P00533). The settings on record: a2780ddp.
Test [9] concerns the target EGFR (human) (UniProt P00533). The settings on record: lox.
For test [10], the target named is EGFR (human) (UniProt P00533). To be noted: mcf-7.
Test [11] addresses EGFR (UniProt P00533).

Chain of EGFR (human) (P00533 whole entry, looked up): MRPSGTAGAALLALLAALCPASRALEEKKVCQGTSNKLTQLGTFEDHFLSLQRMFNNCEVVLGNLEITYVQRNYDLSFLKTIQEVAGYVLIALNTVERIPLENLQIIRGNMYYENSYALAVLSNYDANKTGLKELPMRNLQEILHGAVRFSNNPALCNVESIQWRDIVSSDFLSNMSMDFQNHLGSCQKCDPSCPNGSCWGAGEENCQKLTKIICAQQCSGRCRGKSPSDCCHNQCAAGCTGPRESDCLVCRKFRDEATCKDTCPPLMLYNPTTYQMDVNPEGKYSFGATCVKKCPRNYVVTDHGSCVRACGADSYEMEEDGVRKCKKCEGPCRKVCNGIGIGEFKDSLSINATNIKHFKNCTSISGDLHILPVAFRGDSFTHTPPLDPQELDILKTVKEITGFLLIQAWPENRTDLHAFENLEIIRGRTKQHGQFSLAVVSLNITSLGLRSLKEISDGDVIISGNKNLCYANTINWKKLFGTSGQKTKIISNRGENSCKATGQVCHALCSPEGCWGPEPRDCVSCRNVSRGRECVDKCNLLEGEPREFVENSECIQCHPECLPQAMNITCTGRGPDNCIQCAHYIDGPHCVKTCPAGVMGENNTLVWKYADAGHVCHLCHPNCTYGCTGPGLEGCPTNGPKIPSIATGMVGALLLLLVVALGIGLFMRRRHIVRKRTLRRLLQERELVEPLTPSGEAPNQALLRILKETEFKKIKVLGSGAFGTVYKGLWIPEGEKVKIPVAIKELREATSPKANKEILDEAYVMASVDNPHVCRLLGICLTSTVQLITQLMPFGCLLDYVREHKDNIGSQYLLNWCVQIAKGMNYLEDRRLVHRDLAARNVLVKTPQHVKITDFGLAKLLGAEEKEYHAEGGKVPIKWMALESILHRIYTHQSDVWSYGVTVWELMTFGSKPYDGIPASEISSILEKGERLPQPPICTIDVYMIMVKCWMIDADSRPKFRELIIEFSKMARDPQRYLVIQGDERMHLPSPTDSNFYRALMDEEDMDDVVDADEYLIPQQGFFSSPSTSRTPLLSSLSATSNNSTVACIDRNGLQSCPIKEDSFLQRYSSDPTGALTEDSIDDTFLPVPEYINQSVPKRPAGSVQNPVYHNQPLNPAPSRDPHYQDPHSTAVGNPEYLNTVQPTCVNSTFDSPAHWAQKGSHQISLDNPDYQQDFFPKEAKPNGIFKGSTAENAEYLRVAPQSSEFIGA
Chain of EGFR (P00533 whole entry, looked up): as above

Consider `CN(C)CCOc1cc2c(Nc3ccc(F)c(Cl)c3)c(C#N)cnc2cn1`, for which the 50% inhibitory concentration (IC50) (usually the concentration that gives 50% inhibition) in [1] was 4.63 µg/mL (≈ 12 µM); in test [2], 4.48 µg/mL (≈ 11.6 µM); in [3], > 5 µg/mL; in [4], > 5 µg/mL; in test [5], 2.23 µg/mL (≈ 5.77 µM); in test [6], > 5 µg/mL.

`N#Cc1cnc2cnc(F)cc2c1Nc1cccc(Br)c1`: the IC50 in test [1] is > 5 µg/mL; in test [4], > 5 µg/mL; in [5], 3.92 µg/mL (≈ 11.4 µM); in test [7], 3.33 µg/mL (≈ 9.7 µM); in test [8], > 5 µg/mL; in test [6] it was > 5 µg/mL.

As for `CNc1cc2c(Nc3cccc(Br)c3)c(C#N)cnc2cn1`, the IC50 was 1.88 µg/mL (≈ 5.3 µM) in test [1]; 0.98 µg/mL (≈ 2.77 µM) in test [4]; 0.31 µg/mL and 0.209 µg/mL in [5]; 3.6 µg/mL (≈ 10.2 µM) in test [9]; 10900 nM and 3870 nM in test [10]; 4.62 µg/mL (≈ 13 µM) in [6]. The IC100 in [5] is 0.59 µM.

In the case of `N#Cc1cnc2cnc(NCCN3CCOCC3)cc2c1Nc1cccc(Br)c1`, the IC50 in test [4] was determined as 49 µg/mL (≈ 108 µM); in [5] it was 0.5 µg/mL (≈ 1.1 µM); in test [7], 0.5 µg/mL (≈ 1.1 µM); in test [9], 57 µg/mL (≈ 126 µM); in test [6], 41 µg/mL (≈ 90.4 µM).

Regarding `C[Si](C)(C)C#Cc1cc2c(Nc3cccc(Br)c3)c(C#N)cnc2cn1`, the IC50 in [1] is 3.59 µg/mL (≈ 8.52 µM); in [4] it was 4.2 µg/mL (≈ 9.97 µM); in [5], 3.06 µg/mL (≈ 7.25 µM); in [7], 2.34 µg/mL (≈ 5.56 µM); in test [8], 2.97 µg/mL (≈ 7.05 µM); in [6] it was 4.72 µg/mL (≈ 11.2 µM).

With `N#Cc1cnc2cnc(N)cc2c1Nc1cccc(Br)c1`, the IC50 in [1] was 4.1 µg/mL (≈ 12.1 µM); in test [4], > 5 µg/mL; in test [5], 0.4 µg/mL (≈ 1.18 µM); in [7] it was 3.5 µg/mL (≈ 10.3 µM); in test [8], 3.1 µg/mL (≈ 9.11 µM); in test [6], > 5 µg/mL.

For the compound `CN(C)c1cc[n+](-c2cc3c(Nc4cccc(Br)c4)c(C#N)cnc3cn2)cc1`, the concentration for half-maximal inhibition (IC50) came to 41 µg/mL in [1]; 47 µg/mL in [4]; 59 µg/mL in test [5]; 31 µg/mL in test [7]; 52 µg/mL in test [8]; 56 µg/mL in test [9]. In test [6], this compound came in with an IC50 of 42 µg/mL.

As to `CN(C)C/C=C/C(=O)Nc1cnc2ncc(C#N)c(Nc3cccc(Br)c3)c2c1`, the IC50 in [1] is 4.83 µg/mL (≈ 10.7 µM); in test [4], > 5 µg/mL; in test [5] it was 2.76 µg/mL (≈ 6.12 µM); in test [7], 1.77 µg/mL (≈ 3.92 µM); in test [11], > 800 nM; in [8], 4 µg/mL (≈ 8.87 µM). In addition, in test [6], the IC50 is > 5 µg/mL.

With `CC#CC(=O)Nc1cc2c(Nc3cccc(Br)c3)c(C#N)cnc2cn1`, the half-maximal inhibitory concentration (IC50) was 0.12 µg/mL (≈ 0.295 µM) in [1]; 0.88 µg/mL (≈ 2.17 µM) in test [4]; 0.23 µg/mL (≈ 0.566 µM) in [5]; 0.13 µg/mL (≈ 0.32 µM) in test [8]; 0.07 µg/mL (≈ 0.172 µM) in [9]; 980 nM and 400 nM in test [10]. In addition, in [6], the IC50 worked out at 0.17 µg/mL (≈ 0.418 µM).

Take `CC#CC(=O)Nc1cnc2ncc(C#N)c(Nc3ccc(F)c(Cl)c3)c2c1`: the half-inhibitory concentration (IC50) in test [11] is > 100 nM.

On to `CN(C)C/C=C/C(=O)Nc1cc2c(Nc3cccc(Br)c3)c(C#N)cnc2cn1`, for which the IC50 in test [1] is 0.0357 µg/mL (≈ 0.079 µM); in [2], 0.272 µg/mL and 0.373 µg/mL; in test [3] it was 0.106 µg/mL and 0.0436 µg/mL; in test [4] it was 0.464 µg/mL (≈ 1.03 µM); in test [5] it was 0.088 µg/mL (≈ 0.195 µM); in [6] it was 0.356 µg/mL (≈ 0.789 µM).

As to `COc1ccc(CNc2cc3c(Nc4cccc(Br)c4)c(C#N)cnc3cn2)cc1`, the 50% inhibitory concentration (IC50) stood at 2.9 µg/mL (≈ 6.3 µM) in [1]; 2.4 µg/mL (≈ 5.21 µM) in test [4]; 0.4 µg/mL (≈ 0.869 µM) in test [5]; 1 µg/mL (≈ 2.17 µM) in test [7]; 1.8 µg/mL (≈ 3.91 µM) in test [8]; 4.1 µg/mL (≈ 8.91 µM) in test [6].
